Where a name gives a salt, the structure may show the parent alone.
System: female Sprague-Dawley rats (Sham and Ovx)
Assay: Female Rat Study: chronic oral treatment with a GHRP mimetic, non-fasting plasma insulin and metabolite levels
Type: in vivo
Conditions: non-fasting blood at sacrifice
Protocol: This study evaluates the effect of chronic treatment with a GHRP mimetic on weight, body composition and non-fasting plasma concentrations of glucose, insulin, lactate and lipids in estrogen-deficient and estrogenreplete female rats. Acute responsiveness of serum GH levels to i.v. administration of the GH releasing agent was assessed on the last day of dosing. Body weight was monitored weekly throughout the treatment period; additionally, body composition and plasma levels of glucose, insulin, lactate, cholesterol and triglycerides were assessed at the end of treatment.
Virgin female Sprague-Dawley rats were obtained from Charles River Laboratories (Wilmington, Mass.) and underwent bilateral ovariectomy (Ovx) or sham-surgery (Sham) at approximately 12 weeks of age. For sham surgeries, ovaries were exteriorized and replaced into the abdominal cavity. Following surgery the rats were housed individually in 20 cm×32 cm×20 cm cages under standard vivarium conditions (about 24° C. with about 12 hours light/12 hours dark cycle). All rats were allowed free access to water and a pelleted commercial diet (Agway ProLab 3000, Agway Country Food, Inc., Syracuse, N.Y.). The experiment was conducted in accordance with NIH Guidelines for the Care and Use of Laboratory Animals.
Approximately seven months post-surgery, Sham and Ovx rats were weighed and randomly assigned to groups. Rats were dosed daily by oral gavage with 1 mL of either vehicle (1% ethanol in distilled-deionized water), 0.5 mg/kg or 5 mg/kg of a growth hormone releasing agent for 90 days. Rats were weighed at weekly intervals throughout the study. Twenty-four hours after the last oral dose, the acute response of serum growth hormone (GH) to test agent was assessed by the following procedure. Rats were anesthetized with sodium pentobarbital 50 mg/kg. Anesthetized rats were weighed and a baseline blood sample (˜100 μl) was collected from the tail vein. Test agent (growth hormone releasing agent or vehicle) was then administered intravenously via the tail vein in 1 mL. Approximately ten minutes after injection, a second 100 μl blood sample was collected from the tail. Blood was allowed to clot at about 4° C., then centrifuged at 2000×g for about 10 minutes. Serum was stored at about −70° C. Serum growth hormone concentrations were determined by radioimmunoassay as previously described. Following this procedure, each anesthetized rat underwent whole body scanning by dual-energy X-ray absorptiometry (DEXA, Hologic QDR 1000/W, Waltham Mass.). A final blood sample was collected by cardiac puncture into heparinized tubes. Plasma was separated by centrifugation and stored frozen as described above.
Plasma insulin is determined by radioimmunoassay using a kit from Binax Corp. (Portland, Me.). The interassay coefficient of variation is ≦10%. Plasma triglycerides, total cholesterol, glucose and lactate levels are measured using Abbott VP™ and VP Super System® Autoanalyzer (Abbott Laboratories, Irving, Texas), using the A-Gent™ Triglycerides, Cholesterol and Glucose Test reagent systems, and a lactate kit from Sigma, respectively. The plasma insulin, triglycerides, total cholesterol and lactate lowering activity of a growth hormone releasing peptide (GHRP) or GHRP mimetic such as a compound of formula I, are determined by statistical analysis (unpaired t-test) with the vehicle-treated control group.

[1] = Ovx rats, 0.5 mg/kg daily oral gavage for 90 days
[2] = Ovx rats, 5.0 mg/kg daily oral gavage for 90 days
[3] = Sham rats, 0.5 mg/kg daily oral gavage for 90 days
[4] = Sham rats, 5.0 mg/kg daily oral gavage for 90 days

Compound: CN1N=C2CCN(C(=O)[C@@H](COCc3ccccc3)NC(=O)C(C)(C)N)C[C@@]2(Cc2ccccc2)C1=O [2-amino-N-[2-(3a-(R)-benzyl-2-methyl-3-oxo-2,3,3a,4,6,7-hexahydro-pyrazolo[4,3-c]pyridin-5-yl)-1-(R)-(benzyloxymethyl)-2-oxo-ethyl]-isobutyramide L-tartaric acid salt]
- Cholesterol (mean plasma level) [1]: 92.5 mg/dL
- Glucose (mean plasma level) [1]: 179.7 mg/dL
- Insulin (mean plasma level) [1]: *78.7 uU/mL
- Lactate (mean plasma level) [1]: 3.6 mg/dL
- Triglyceride (mean plasma level) [1]: 181.9 mg/dL
- Cholesterol (mean plasma level) [2]: 102.2 mg/dL
- Glucose (mean plasma level) [2]: 177.2 mg/dL
- Insulin (mean plasma level) [2]: *84.1 uU/mL
- Lactate (mean plasma level) [2]: 3.1 mg/dL
- Triglyceride (mean plasma level) [2]: 158.4 mg/dL
- Cholesterol (mean plasma level) [3]: 95.4 mg/dL
- Glucose (mean plasma level) [3]: *142.7 mg/dl
- Insulin (mean plasma level) [3]: 94.9 uU/mL
- Lactate (mean plasma level) [3]: 3.7 mg/dL
- Triglyceride (mean plasma level) [3]: 219.6 mg/dL
- Cholesterol (mean plasma level) [4]: *80.6 mg/dl
- Glucose (mean plasma level) [4]: *139.9 mg/dl
- Insulin (mean plasma level) [4]: 95.7 uU/mL
- Lactate (mean plasma level) [4]: *3.2 mg/dl
- Triglyceride (mean plasma level) [4]: 227.2 mg/dL

From patent US6448263B1, “Treatment of insulin resistance with growth hormone secretagogues” (Pfizer Inc., priority 1997, dated 2002)
